Measurements as given in US20060252732A1, “Blood vessel-growth promoter” (priority 2003, published 2006).

Key:
[1] = test system: human vascular endothelial cells (HUVEC) and fibroblast; experiment: Measurement of neo-vascularization ability (tube formation, CD31 staining, Angiogenesis Kit KZ-1000); format: cell-based
Protocol: Measurement of Neo-Vascularization Ability
The tube formation by a mixture-system of human vascular endothelial cells (HUVEC) and fibroblast was investigated by CD31 staining kit (Kurabo Ind.) to be visualized, and be made score by an analytical soft (NIH Image). A broth containing acetylsalicylic (0.5, 5.5, 55 μM; changed every three days) was added to neo-vascularization kit (Angiogenesis Kit KZ-1000; Kurabo Ind.) prepared by mixing human vascular endothelial cells and fibroblast, and the resulting broth was cultivated for 11 days. Then immuno histochemical study was performed by using CD31 staining kit, and the color photo was taken. The picture was analyzed using NIH Image and the amount of the formed tubes was scored as an area to evaluate. As a positive control, vascula endothelial growth factor (VEGF; 10 ng/mL) and as a negative control sramine (100 μM) were used, respectively.

[2] = test system: human umbilical vein endothelial cells (HUVEC); experiment: Proliferation test on human umbilical vein endothelial cells (HUVEC); format: cell-based
Protocol: Proliferation Test on Human Umbilical Vein Endothelial Cells (HUVEC) […] After the culture broth was filtered by suction, to a minimum essential medium (MEM) broth containing 1% FBS, acetylsalicylic acid was added at a concentration (0, 0.055, 0.55, 5.5, 55, 555 μM, respectively) and each mixture was cultivated. After 0, 24 and 48 hours the number of alive cells was counted. As a positive control vascular endothelial growth factor (VEGF; Vascular Endothelial Growth Factor-A) (20 ng/mL) was used. In this measurement, Cell Counting Kit-8 (Dojin Chemical Co.) was used.

Wister female rats = experiment: Neo-vascularization test using rats (subcutaneous urethane sponge, carmine dye); format: in vivo, rat
Protocol: Neo-Vascularization Test Using Rats
Wister female rats (7 weeks old; n=6) were anesthetized with ether, and a urethane sponge (diameter: 8 mm) previously permeating a drug was inserted in subcutaneous tissue of right shoulder. As a test drug, acetylsalicylic acid (2 mg) and as a positive control retinoid (0.5 mg) were administered, respectively. Four days later after insertion of the sponge, 5% gelatin solution containing 5% carmine dye kept at 37° C. was administered under ether anesthesia in tail vein of the rat. After injection, the rats in suspended animation were left at 4° C. for 2 hours, and the gelatin solution containing carmine dye distributed in blood vessel was solidified. After butcher of the rats, the sponge with granulation tissue was extracted and the dye therein was extracted. Absorbancy at 530 nm was measured to calculate the amount of the carmine dye.

## Cc1ccc(C(=O)Nc2ccc(S(=O)(=O)O)c3cc(S(=O)(=O)O)cc(S(=O)(=O)O)c23)cc1NC(=O)c1cccc(NC(=O)Nc2cccc(C(=O)Nc3cc(C(=O)Nc4ccc(S(=O)(=O)O)c5cc(S(=O)(=O)O)cc(S(=O)(=O)O)c45)ccc3C)c2)c1 [Sramine, sramine]
[1]; 100 μM (negative control)
  Neo-vascularization ability, Relative area After 11 days: 0.04

## VEGF
[1]; 10 ng/mL (positive control)
  Neo-vascularization ability, Relative area After 11 days: 1.71
[2]; 20 ng/mL (positive control), after 0 hour
  Change of the number of HUVEC, Relative absorvancy: 1.003
[2]; 20 ng/mL (positive control), after 24 hours
  Change of the number of HUVEC, Relative absorvancy: 2.041
[2]; 20 ng/mL (positive control), after 48 hours
  Change of the number of HUVEC, Relative absorvancy: 1.889

## CC(=O)Oc1ccccc1C(=O)O [Acetylsalicylic acid, acetylsalicylic acid]
[1]
  Tube-formation promoting activity: showed tube-formation promoting activity
[1]; 5.5 μM
  Neo-vascularization ability, Relative area After 11 days: 1.17
[1]; 55 μM
  Neo-vascularization ability, Relative area After 11 days: 1.08
Wister female rats
  Neo-vascularization promoting activity in vivo: neo-vascularization promoting activity was shown
Wister female rats; 2 mg in sponge, subcutaneous, 4 days after insertion
  Amount of carmine dye: 16.0 ± 4.2 µg/mL
[2]; 0.055 μM drug, after 0 hour
  Change of the number of HUVEC, Relative absorvancy: 1.102
[2]; 0.055 μM drug, after 24 hours
  Change of the number of HUVEC, Relative absorvancy: 1.252
[2]; 0.055 μM drug, after 48 hours
  Change of the number of HUVEC, Relative absorvancy: 1.303
[2]; 0.55 μM drug, after 0 hour
  Change of the number of HUVEC, Relative absorvancy: 1.144
[2]; 0.55 μM drug, after 24 hours
  Change of the number of HUVEC, Relative absorvancy: 2.001
[2]; 0.55 μM drug, after 48 hours
  Change of the number of HUVEC, Relative absorvancy: 1.709
[2]; 5.5 μM drug, after 0 hour
  Change of the number of HUVEC, Relative absorvancy: 1.084
[2]; 5.5 μM drug, after 24 hours
  Change of the number of HUVEC, Relative absorvancy: 1.811
[2]; 5.5 μM drug, after 48 hours
  Change of the number of HUVEC, Relative absorvancy: 1.575
[2]; 55 μM drug, after 0 hour
  Change of the number of HUVEC, Relative absorvancy: 1.107
[2]; 55 μM drug, after 24 hours
  Change of the number of HUVEC, Relative absorvancy: 1.754
[2]; 55 μM drug, after 48 hours
  Change of the number of HUVEC, Relative absorvancy: 1.475
[2]; 555 μM drug, after 0 hour
  Change of the number of HUVEC, Relative absorvancy: 1.017
[2]; 555 μM drug, after 24 hours
  Change of the number of HUVEC, Relative absorvancy: 1.044
[2]; 555 μM drug, after 48 hours
  Change of the number of HUVEC, Relative absorvancy: 0.699
[2]; added in more than 0.055 μM
  Proliferation promoting activity of HUVEC: proliferation promoting activity of HUVEC was confirmed
[2]; added in more than 555 μM
  Proliferation promoting effect on HUVEC: proliferation promoting effect was not recognized or was even depressed
